Here are results for two compounds from patent EP4685153A1 (priority 2023, dated 2024).

What is called IC50 is the concentration that inhibits the measured activity by half. Lower therefore signals higher potency.

Residues, ends and D or L forms follow the SMILES beside them. *: point of attachment. Succinyl(4-O-cholesteryl) = CC(C)CCC[C@@H](C)[C@H]1CC[C@H]2[C@@H]3CC=C4C[C@@H](OC(=O)CCC(=O)*)CC[C@]4(C)[C@H]3CC[C@]12C

This test has as its system SARS-CoV-2 D614G mutant strain. The note with it: 48 h.

For `CC[C@H](C)[C@H](NC(=O)[C@H](CCCCN)NC(=O)[C@H](CCCCN)NC(=O)[C@H](CCC(=O)O)NC(=O)[C@H](CC(C)C)NC(=O)[C@H](CCC(=O)O)NC(=O)[C@H](CCC(=O)O)NC(=O)[C@H](CC(C)C)NC(=O)[C@H](CCC(=O)O)NC(=O)[C@H](CCCCN)NC(=O)[C@H](CCC(=O)O)NC(=O)[C@H](Cc1ccc(O)cc1)NC(=O)[C@H](CCC(=O)O)NC(=O)[C@H](CCC(=O)O)NC(=O)[C@H](Cc1ccc(O)cc1)NC(=O)[C@H](CCC(=O)O)NC(C)=O)C(=O)N[C@@H](CCC(=O)O)C(=O)N[C@@H](CCC(=O)O)C(=O)N[C@@H](CC(C)C)C(=O)N[C@@H](CC(C)C)C(=O)N[C@@H](CCCCN)C(=O)N[C@@H](CCCCN)C(=O)N[C@@H](C)C(=O)N[C@@H](CCC(=O)O)C(=O)N[C@@H](CCC(=O)O)C(=O)N[C@@H](CCC(N)=O)C(=O)N[C@@H](CCC(N)=O)C(=O)N[C@@H](CCCCN)C(=O)N[C@@H](CCCCN)C(=O)N[C@@H](CC(N)=O)C(=O)N[C@@H](CCC(=O)O)C(=O)N[C@@H](C)C(=O)N[C@@H](C)C(=O)N[C@@H](C)C(=O)N[C@@H](CCCCN)C(=O)N[C@@H](CCCCNC(=O)CCC(=O)O[C@H]1CC[C@@]2(C)C(=CC[C@H]3[C@@H]4CC[C@H]([C@H](C)CCCC(C)C)[C@@]4(C)CC[C@@H]32)C1)C(N)=O` [LP-127] (Ac-EYEEYEKELEELEKKIEELLKKAEEQQKKNEAAAKK(Succinyl(4-O-cholesteryl))-NH2), it took 27.4 nM to reach half-maximal inhibition (IC50).
On to `CC[C@H](C)[C@H](NC(=O)[C@H](CCCCN)NC(=O)[C@H](CCCCN)NC(=O)[C@H](CCC(=O)O)NC(=O)[C@H](CC(C)C)NC(=O)[C@H](CCC(=O)O)NC(=O)[C@H](CCC(=O)O)NC(=O)[C@H](CC(C)C)NC(=O)[C@H](CCC(=O)O)NC(=O)[C@H](CCCCN)NC(=O)[C@H](CCC(=O)O)NC(=O)[C@H](Cc1ccc(O)cc1)NC(=O)[C@H](CCC(=O)O)NC(C)=O)C(=O)N[C@@H](CCC(=O)O)C(=O)N[C@@H](CCC(=O)O)C(=O)N[C@@H](CC(C)C)C(=O)N[C@@H](CC(C)C)C(=O)N[C@@H](CCCCN)C(=O)N[C@@H](CCCCN)C(=O)N[C@@H](C)C(=O)N[C@@H](CCC(=O)O)C(=O)N[C@@H](CCC(=O)O)C(=O)N[C@@H](CCC(N)=O)C(=O)N[C@@H](CCC(N)=O)C(=O)N[C@@H](CCCCN)C(=O)N[C@@H](CCCCN)C(=O)N[C@@H](CC(N)=O)C(=O)N[C@@H](CCC(=O)O)C(=O)N[C@@H](C)C(=O)N[C@@H](C)C(=O)N[C@@H](C)C(=O)N[C@@H](CCCCN)C(=O)N[C@@H](CCCCNC(=O)CCC(=O)O[C@H]1CC[C@@]2(C)C(=CC[C@H]3[C@@H]4CC[C@H]([C@H](C)CCCC(C)C)[C@@]4(C)CC[C@@H]32)C1)C(N)=O` [LP-128] (Ac-EYEKELEELEKKIEELLKKAEEQQKKNEAAAKK(Succinyl(4-O-cholesteryl))-NH2), for which the 50% inhibitory concentration (IC50) stood at 25.1 nM.
